In assay [1] the test system is T1, CcOctβ3R.
T1 construct: gene Octβ3R
Conditions: read-out: CcOctβ3R / IC50; antagonist; non-saturating OA (300 nM); 100 μM IBMX; 25 °C. From the text: inhibition of OA-induced cAMP in stable CHO-K1 cells (cAMP immunoassay) on CcOctβ3R

The test system of assay [2] is T2, CcOctβ1R.
T2 construct: gene Octβ1R
The following applies: read-out: CcOctβ1R / IC50; antagonist; non-saturating OA (100 nM); 100 μM IBMX; 25 °C. An excerpt:
inhibition of OA-induced cAMP in stable CHO-K1 cells (cAMP immunoassay) on CcOctβ1R

Assay [3] relates to T3, CcOctβ2R.
T3 construct: gene Octβ2R
Conditions: read-out: CcOctβ2R / IC50; antagonist; non-saturating OA (30 nM); 100 μM IBMX; 25 °C. From the text: inhibition of OA-induced cAMP in stable CHO-K1 cells (cAMP immunoassay) on CcOctβ2R

The subject of assay [4] is T4, CcOctβ3R.
T4 construct: gene Octβ3R; full-length ORF, 358 residues; pcDNA3.0 vector with hemagglutinin A tag
Description: cAMP production in stable CHO-K1 cells (cAMP immunoassay). The following applies: agonist; 100 μM IBMX; 25 °C. In kind it is cell-based, Cotesia chilonis. Background: Changes in cAMP serve as a functional read-out for many G protein-coupled receptors.

Assay [5] relates to T5, CcOctβ2R.
T5 construct: gene Octβ2R; full-length ORF, 435 residues; pcDNA3.0 vector with hemagglutinin A tag
Described as above. Format: cell-based, Cotesia chilonis. Conditions: agonist; 100 μM IBMX; 25 °C. From the text: cAMP production in stable CHO-K1 cells (cAMP immunoassay) on CcOctβ2R

Assay [6] has as its system T6, CcOctβ1R.
T6 construct: gene Octβ1R; full-length ORF, 417 residues; pcDNA3.0 vector with hemagglutinin A tag
The description is as above. The following applies: agonist; 100 μM IBMX; 25 °C. In kind it is cell-based, Cotesia chilonis. From the text:
cAMP production in stable CHO-K1 cells (cAMP immunoassay) on CcOctβ1R

A word on the EC50: it is the concentration that produces a half-maximal response. Low readings indicate greater potency, high ones weaker potency.

Turning to `NC1=NCC2c3ccccc3Cc3ccccc3N12` (centres unmarked) [Epinastine], the IC50 in the assay on CcOctβ3R [1] amounted to 7.34 nM; in the assay on CcOctβ1R [2], 37.6 nM; in the assay on CcOctβ2R [3] it was 14.4 nM.
Turning to `NC[C@H](O)c1ccc(O)cc1` [OA], the values for the EC50 in the assay with CcOctβ3R [4], in the assay on CcOctβ2R [5] and with CcOctβ1R [6] were 33.6 nM, 6.69 nM and 39 nM, respectively.
In the case of `Cc1ccc(/N=C/N(C)/C=N/c2ccc(C)cc2C)c(C)c1` [Amitraz], the EC50 was 3.27 nM in the assay on CcOctβ2R [5] and 16.5 nM with CcOctβ1R [6].
On to `c1ccc2c(CC3=NCCN3)cccc2c1` [Naphazoline], for which the EC50 with CcOctβ3R [4] is 5.06 nM; in the assay with CcOctβ2R [5], 0.0157 nM; in the assay on CcOctβ1R [6], 0.231 nM.
Regarding `CN=CNc1ccc(C)cc1C` [DPMF, N^2-(2,4-dimethylphenyl)-N^1-methyformamidine], the results for the EC50 with CcOctβ3R [4], in the assay with CcOctβ2R [5] and in the assay with CcOctβ1R [6] were 4.35 nM, 2.37 nM and 9.25 nM, respectively.

The record behind these values is PMC9740559, “Molecular and Pharmacological Characterization of β-Adrenergic-like Octopamine Receptors in the Endoparasitoid Cotesia chilonis (Hymenoptera: Braconidae)” (International Journal of Molecular Sciences, 2022).
